Experimental data as given in patent US7402433B2, “Method of in-vitro micropropagation of Piper longum plants” (Reliance Life Sciences Pvt. Ltd., priority 2003, dated 2008).

Key:
Format in all cases: cell-based
[1] = system: regenerated shoots of Piper longum; test: Rooting of regenerated shoots on MS medium with IBA; conditions: IBA 0.1-3.1 mg/L
Procedure: 2.5-3 cm long shoots with 2-3 nodes were carefully separated from the culture clumps using a sterile scalpel under LF.
Sub-culturing 10 separated shoots in a wide mouthed bottle containing MS basal medium fortified with Indole Butyric Acid (IBA) (1-3 mg/L), 2-4% sucrose, 100 mg/L myo-inositol and 0.7-1.2% agar.
Rooting of the regenerated shoots under reduced light 1000-3000 Lux for 28 days. Photoperiod and temperatures remains the same as before.

[2] = system: lateral bud (meristematic) explant of Piper longum; test: Induction of rhizogenesis from lateral bud explants on culture initiation medium (MS + NAA)
Procedure: Preparing culture initiation medium by using MS basal medium described by Murashige and Skoog in 1968. To the MS basal medium, sucrose (2-4%), agar powder (0.7-1.2%), 100 mg/L myo-inositol and Naphthalene Acetic Acid (NAA) (0.01-0.5 mg/L) was added. This medium was autoclaved at 15 psi for 20 min and then cooled to solidify at room temperature.
Using sterilized forceps, each isolated and surface sterilized lateral bud was inoculated in a test tube containing 15 ml of above-mentioned medium; by placing the cut end of the lateral buds touching the medium.
Incubating the inoculated explants in dark at 23° C. +/−1° C. for 7-15 days. By this time, 6-7 root primordia appear from the basal cut end of all the lateral buds.
Transferring incubated cultures in light having 2000-4000 lux light intensity.
A photoperiod of 16 hours was provided followed by a dark period of 8 hours daily.
Allowing each root to grow to an average size of […] in 45 days.
A lateral bud (meristematic) explant from any position of a young or mature plant of Piper longum was taken and cultured in an MS basal medium supplemented with sucrose (2-4%), NAA (0.1-0.5 mg/l) and gelled with agar (0.7-1.2%). These were incubated in dark for 10 days at 23° C.±1° C. and transferred to a light intensity of 1000-3000 lux for 16 Hrs. followed by 8 Hrs. dark period resulting into rhizogenesis, producing 6-7 root like organs, by direct organogenosis from meristematic tissues of lateral buds, which grew up to 1.5 cm in length by 45th day of isolation.

[3] = system: root segments (rhizogenic tissues) of Piper longum; test: Shoot bud proliferation from root segments on MS medium with BAP; conditions: 23° C.
Procedure: Sub-culturing the 18 root segments separately onto MS basal medium supplemented with Benzyl Amino Purine (BAP) (0.5-3 mg/L), 2-4% sucrose, 100 mg/l myo-inositol and 0.7-1.2% agar for solidifying the medium.
Cultures were kept at 23° C. +/−1° C. under 2000-4000 Lux light intensity for a photoperiod of 16 hours followed by a dark period of 8 hours.
Each segment produced 50-55 adventitious shoot buds i.e. (18×50=900 shoot buds).

In the case of Indole Butyric Acid [IBA], the “response of separated shoots (rooting)” value [1] was “All separated shoots were responsive” and the “root system from the basal cut ends of shoots” value ([1]; in 4 weeks time) was “produced healthy root system”.

With Naphthalene Acetic Acid [NAA] the “root primordia appearing from the basal cut end of the lateral buds” value ([2]; NAA 0.01-0.5 mg/L in MS basal medium, dark, 23° C. +/−1° C., 7-15 days) was 6-7, the “root like organs produced by direct organogenesis (rhizogenesis)” value ([2]; NAA 0.1-0.5 mg/l in MS basal medium, 10 days dark at 23° C., then 1000-3000 lux 16 Hrs./8 Hrs. dark) was 6-7 and the “length of root like organs” value ([2]; NAA 0.1-0.5 mg/l, by 45th day of isolation) was “up to 1.5 cm”.

In the case of `c1ccc(CNc2ncnc3[nH]cnc23)cc1` [BAP, Benzylaminopurine], the “adventitious shoot buds produced per root segment” value ([3]; BAP 0.5-3 mg/L in MS basal medium, 2000-4000 Lux, 16 hours photoperiod) was 50-55 and the “adventitious shoot bud formation” value ([3]; BAP 0.5-3 mg/L, 0.5 cm long root segments, 2000-4000 lux, 16 Hrs. light/8 Hrs. dark) was “adventitious shoot bud formation from all the root segments”.
